Source: publication PMC4784888, “Activity Based High-Throughput Screening for Novel O-GlcNAc Transferase Substrates Using a Dynamic Peptide Microarray” (PLoS ONE, 2016)
Counter-ions that a name gives are not always drawn.

System: purified m-OGT
Test: Km of UDP-GlcNAc in RBL-2 peptide O-GlcNAcylation on microarray
Assay type: biochemical, human
Conditions: fixed saturating RBL-2_410–422 peptide, purified m-OGT (0.2 μg/μL), UDP-GlcNAc 0–2 mM, Michaelis-Menten fit; read-out: Km of UDP-GlcNAc donor
Protocol: One step OGT purification was performed using His60 Ni Gravity Flow Columns (Clontech) according to the manufacturer’s instructions. Briefly, the nickel column was equilibrated with a buffer containing 50 mM sodium phosphate, 300 sodium chloride, 20 mM imidazole, and pH 7.4, followed by incubation with cell lysate containing His tag OGT for 1h at 4°C. After washing several times using buffer containing 50 mM sodium phosphate, 300 sodium chloride, 40 mM imidazole, and pH 7.4, the recombinant OGT was eluted using elution buffer containing 50 mM sodium phosphate, 300 mM sodium chloride, 300 mM imidazole, and pH 7.4. […]
Peptide O-GlcNAcylation was assessed using PamChip 4 microarray chips with a PamStation 12 instrument (Pamgene international, The Netherlands). […] O-GlcNAcylation of each peptide was detected by a fluorescent signal which was produced by an FITC conjugated antibody bound to the O-GlcNAc moiety on the peptide.
Image analysis was performed using BioNavigator 6 software (Pamgene international, The Netherlands). Briefly, each image was quantified by automated array grid finding and subsequent quantification of signal and local background for each individual spot. In this work, the signal median-minus-background value was used as the quantitative parameter for the O-GlcNAcylation of the peptide. […]

Compound `CC(=O)N[C@H]1[C@@H](OP(=O)(O)OP(=O)(O)OC[C@H]2O[C@@H](n3ccc(=O)[nH]c3=O)[C@H](O)[C@@H]2O)O[C@H](CO)[C@@H](O)[C@@H]1O` [UDP-GlcNAc, Uridine 5′-diphospho-N-acetylglucosamine sodium salt] has a Km of 24 µM.
